In ChEMBL document CHEMBL1201862, “PubChem BioAssay data set” (2004):
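Five compound concentrations were applied to cells in 96-well plates for 48 hours; endpoints were derived by simple linear interpolation of the resulting dose-response curve. GI50: concentration for 50% inhibition of growth.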 Calls of active or inactive are those of the source. No stated cut-off is given here; in the data, active = GI50 up to about 1.1 µM and inactive = higher.

Tests used:
Experiment in all cases: inhibition of tumour cell growth, NCI panel, 48 h
MDA-MB-231 = tested on: MDA-MB-231
HCC 2998 = tested on: HCC 2998
NCI-H460 = tested on: NCI-H460
HCT-116 = tested on: HCT-116
UACC-257 = tested on: UACC-257
SK-MEL-5 = tested on: SK-MEL-5
SK-MEL-28 = tested on: SK-MEL-28
786-0 = tested on: 786-0
OVCAR-3 = tested on: OVCAR-3
NCI/ADR-RES = tested on: NCI/ADR-RES
DU-145 = tested on: DU-145
SK-MEL-2 = tested on: SK-MEL-2
PC-3 = tested on: PC-3
HOP-62 = tested on: HOP-62
CAKI-1 = tested on: CAKI-1
COLO 205 = tested on: COLO 205
SF-295 = tested on: SF-295
RPMI-8226 = tested on: RPMI-8226
HOP-92 = tested on: HOP-92

Structure (SMILES) | GI50 (MDA-MB-231) | GI50 (HCC 2998) | GI50 (NCI-H460) | GI50 (HCT-116) | GI50 (UACC-257) | GI50 (SK-MEL-5) | GI50 (SK-MEL-28) | GI50 (786-0) | GI50 (OVCAR-3) | GI50 (NCI/ADR-RES) | GI50 (DU-145) | GI50 (SK-MEL-2) | GI50 (PC-3) | GI50 (HOP-62) | GI50 (CAKI-1) | GI50 (COLO 205) | GI50 (SF-295) | GI50 (RPMI-8226) | GI50 (HOP-92)
N#Cc1c(N2CCN(c3ccc([N+](=O)[O-])cc3)CC2)[n+]([O-])c2ccccc2[n+]1[O-] | > 100 µM (inactive) | > 100 µM (inactive) | > 100 µM (inactive) | > 100 µM (inactive) | > 100 µM (inactive) | > 100 µM (inactive) | > 100 µM (inactive) | > 100 µM (inactive) | > 100 µM (inactive) | 79.4 µM (inactive) | > 100 µM (inactive) | > 100 µM (inactive) | > 100 µM (inactive) | > 100 µM (inactive) | > 100 µM (inactive) | > 100 µM (inactive) | > 100 µM (inactive) | 6.5 µM (inactive) | 
O=C(Cn1nnc(-c2ccccc2)n1)N/N=C/c1cn(Cc2ccc(Cl)cc2Cl)c2ccccc12 | > 100 µM (inactive) |  | > 100 µM (inactive) | > 100 µM (inactive) | > 100 µM (inactive) | > 100 µM (inactive) |  | 36.9 µM (inactive) | > 100 µM (inactive) | > 100 µM (inactive) | > 100 µM (inactive) | > 100 µM (inactive) | > 100 µM (inactive) | > 100 µM (inactive) | > 100 µM (inactive) | > 100 µM (inactive) | 63.2 µM (inactive) | > 100 µM (inactive) | > 100 µM (inactive)
CC(=O)OC12CC(C(F)(F)F)(C(F)(F)F)OC1(OC(C)=O)CC(C(F)(F)F)(C(F)(F)F)O2 (stereo unspecified) | 6.34 µM (inactive) | 9.08 µM (inactive) | 4.05 µM (inactive) | 3.66 µM (inactive) | 3.13 µM (inactive) | 0.385 µM (active) | 4.54 µM (inactive) | 2.9 µM (inactive) | 2.02 µM (inactive) | 10.9 µM (inactive) | 4.06 µM (inactive) | 5.75 µM (inactive) | 0.805 µM (active) | 25.4 µM (inactive) |  | 3.95 µM (inactive) | 6.76 µM (inactive) | 0.7 µM (active) | 
CC(C)(C)NC(=O)/C(=C\Sc1ccccc1)c1ccc2c(c1)OCO2 | 21.8 µM (inactive) | 37.3 µM (inactive) |  | 24.3 µM (inactive) | 25.4 µM (inactive) | 17.6 µM (inactive) | 49 µM (inactive) | 31.9 µM (inactive) | 30.8 µM (inactive) | 24.2 µM (inactive) | 37.2 µM (inactive) | 15.5 µM (inactive) | 22.5 µM (inactive) | 44.3 µM (inactive) | 38.4 µM (inactive) | 22.4 µM (inactive) | 39.1 µM (inactive) | 22.8 µM (inactive) | 15.5 µM (inactive)
N#Cc1nc(C#N)c(NC(=O)c2ccccc2C(=O)O)[nH]1 | > 100 µM (inactive) |  |  | > 100 µM (inactive) | > 100 µM (inactive) | > 100 µM (inactive) | > 100 µM (inactive) | > 100 µM (inactive) | > 100 µM (inactive) | > 100 µM (inactive) | > 100 µM (inactive) | > 100 µM (inactive) | > 100 µM (inactive) | > 100 µM (inactive) | > 100 µM (inactive) | > 100 µM (inactive) | > 100 µM (inactive) | > 100 µM (inactive) | > 100 µM (inactive)
N#C[BH2-][n+]1cn(C2CC(O)C(COP(=O)(O)OC3CC(n4cnc5c(=O)[nH]c(N)nc54)OC3CO)O2)c2nc(N)[nH]c(=O)c21 (stereo unspecified) | > 100 µM (inactive) | > 100 µM (inactive) | > 100 µM (inactive) | > 100 µM (inactive) | > 100 µM (inactive) | > 100 µM (inactive) | > 100 µM (inactive) | > 100 µM (inactive) | > 100 µM (inactive) | > 100 µM (inactive) | > 100 µM (inactive) | > 100 µM (inactive) | 66.4 µM (inactive) | 84.7 µM (inactive) | > 100 µM (inactive) | > 100 µM (inactive) | > 100 µM (inactive) |  | > 100 µM (inactive)
CCN(CC)Cc1ccc(Nc2c3ccccc3nc3ccccc23)cc1 | 1.66 µM (inactive) | 1.08 µM (active) | 1.19 µM (inactive) | 1.16 µM (inactive) | 1.71 µM (inactive) | 1.71 µM (inactive) | 1.61 µM (inactive) | 1.67 µM (inactive) | 3.03 µM (inactive) | 5.48 µM (inactive) | 2.37 µM (inactive) | 2.99 µM (inactive) | 1.59 µM (inactive) | 2.38 µM (inactive) | 1.41 µM (inactive) | 1.71 µM (inactive) | 2.62 µM (inactive) |  | 2.79 µM (inactive)
C#CCOC(=O)C(N)CCSC (stereo unspecified) | > 100 µM (inactive) |  |  | > 100 µM (inactive) | > 100 µM (inactive) | > 100 µM (inactive) | > 100 µM (inactive) | > 100 µM (inactive) | > 100 µM (inactive) | > 100 µM (inactive) | > 100 µM (inactive) | > 100 µM (inactive) | > 100 µM (inactive) | > 100 µM (inactive) | > 100 µM (inactive) | > 100 µM (inactive) | > 100 µM (inactive) | > 100 µM (inactive) | > 100 µM (inactive)
Nc1n[n+]([O-])c2cnccc2[n+]1[O-] | 42.9 µM (inactive) | > 100 µM (inactive) | 34.8 µM (inactive) | 32.4 µM (inactive) | 24 µM (inactive) | 16.4 µM (inactive) | 82.4 µM (inactive) | 70.6 µM (inactive) | 35.4 µM (inactive) | 78 µM (inactive) | > 100 µM (inactive) | > 100 µM (inactive) | 36.1 µM (inactive) | > 100 µM (inactive) | > 100 µM (inactive) | 39.6 µM (inactive) | 45.6 µM (inactive) | > 100 µM (inactive) | 
N#Cc1ncn(-c2ccccc2)c1N | > 100 µM (inactive) | > 100 µM (inactive) | > 100 µM (inactive) | > 100 µM (inactive) | > 100 µM (inactive) | > 100 µM (inactive) | > 100 µM (inactive) | > 100 µM (inactive) | > 100 µM (inactive) | > 100 µM (inactive) | > 100 µM (inactive) | > 100 µM (inactive) | > 100 µM (inactive) | > 100 µM (inactive) | > 100 µM (inactive) | > 100 µM (inactive) | > 100 µM (inactive) | > 100 µM (inactive) | 
CC(CN(C)C)C(=O)c1ccccc1C(=O)O (stereo unspecified) | 18.8 µM (inactive) |  |  | 32.1 µM (inactive) |  | 28.5 µM (inactive) | 31.2 µM (inactive) | 24.2 µM (inactive) | 14.7 µM (inactive) | 29.1 µM (inactive) | 30.2 µM (inactive) | 15.7 µM (inactive) | 23.9 µM (inactive) | 20.6 µM (inactive) | 28.2 µM (inactive) | 25.4 µM (inactive) | 41.9 µM (inactive) | 18.5 µM (inactive) | 41.9 µM (inactive)
Cc1cc(C)cc(Nc2nnc3n2S(=O)(=O)c2cc(C)c(Cl)cc2S3)c1 | 4.73 µM (inactive) | 4.8 µM (inactive) | 4.29 µM (inactive) | 3.48 µM (inactive) | 4.35 µM (inactive) | 5.92 µM (inactive) | 17.6 µM (inactive) | 4.94 µM (inactive) | 4.27 µM (inactive) | 2.99 µM (inactive) | 10.3 µM (inactive) | 2.7 µM (inactive) | 2.77 µM (inactive) | 7.31 µM (inactive) | 7.11 µM (inactive) | 4.72 µM (inactive) | 7.03 µM (inactive) | 2.88 µM (inactive) | 
N#Cc1c(-c2cccc(Cl)c2)cc(-c2ccc(Cl)cc2)nc1N | 16.1 µM (inactive) |  | 18.8 µM (inactive) | 16.5 µM (inactive) | 15.3 µM (inactive) | 16.1 µM (inactive) |  | 17 µM (inactive) | 23.7 µM (inactive) | 22 µM (inactive) | 32.9 µM (inactive) | 18.1 µM (inactive) | 17.2 µM (inactive) | 17.3 µM (inactive) | 26.1 µM (inactive) | 14.6 µM (inactive) | 17.2 µM (inactive) | 18.1 µM (inactive) | 10.9 µM (inactive)
CC1(CC(=O)O)OC2CCCCCC2O1.NCc1ccccc1 (stereo unspecified) | > 100 µM (inactive) |  | > 100 µM (inactive) | 74.8 µM (inactive) | 53.5 µM (inactive) | 88.1 µM (inactive) | > 100 µM (inactive) | > 100 µM (inactive) | > 100 µM (inactive) | > 100 µM (inactive) | > 100 µM (inactive) | > 100 µM (inactive) | > 100 µM (inactive) | > 100 µM (inactive) | > 100 µM (inactive) | > 100 µM (inactive) | > 100 µM (inactive) | 31.9 µM (inactive) | 51.4 µM (inactive)
CCOC(=O)c1nnc2c(C#N)c(-c3ccccc3)c(C)n2c1N | 51.8 µM (inactive) | 32.5 µM (inactive) | 39.8 µM (inactive) | 42.2 µM (inactive) | 25.4 µM (inactive) | 39.9 µM (inactive) | 21.6 µM (inactive) | 56.1 µM (inactive) | 29.4 µM (inactive) | 38.8 µM (inactive) | 83.9 µM (inactive) | 42.4 µM (inactive) | 82.4 µM (inactive) | 85.7 µM (inactive) | 52.6 µM (inactive) | 32.9 µM (inactive) | 34.1 µM (inactive) | 22.7 µM (inactive) | 
O=C1c2ccccc2C2(c3ccc(F)cc3)NCCN12 (stereo unspecified) | > 100 µM (inactive) | > 100 µM (inactive) | > 100 µM (inactive) | > 100 µM (inactive) | > 100 µM (inactive) | > 100 µM (inactive) | > 100 µM (inactive) | > 100 µM (inactive) | > 100 µM (inactive) | > 100 µM (inactive) | > 100 µM (inactive) | > 100 µM (inactive) | > 100 µM (inactive) | > 100 µM (inactive) | > 100 µM (inactive) | > 100 µM (inactive) | > 100 µM (inactive) | > 100 µM (inactive) | 
